From ChEMBL document CHEMBL5729070, “Substituted pyrrolo[1,2-a]pyrazines and pyrrolo[1,2-a][1,4]diazepines as TREX1 inhibitors” (2022)

Assay: Exonuclease Assay: To evaluate the effect of compounds on TREX1 activity, test compounds were serially diluted (11-point, 3-fold) from 10 mM stock solutions and delivered to 384-well low-volume assay plates in 80 nL DMSO using an acoustic dispenser. Next, 4 μL of human TREX1 (0.5 nM), or murine TREX1 (1 nM), diluted in assay buffer (20 mM Tris pH 7.5, 5 mM MgCl2, 100 μg/mL BSA, 0.002% Triton X-100, 2 mM DTT), was added to the assay plate. After incubating for 30 minutes, 4 μL of labeled DNA oligonucleotide (500 nM) in assay buffer was added to initiate TREX1 exonuclease activity. The reaction was allowed to proceed for 45 minutes at room temperature prior to the addition of 4 μL of 150 mM EDTA to halt TREX1 activity. Assay plates were equilibrated for an additional 30 minutes and read on an EnVision Plate Reader (Perkin Elmer) to measure fluorescence emission at 535 nm following excitation at 485 nm. Fluorescence was plotted as a function of log molar compound concentration and fit to four-parameter dose-response equation to determine compound IC50.

Row | Compound | IC50
1 | CC(C)C[C@H](C(=O)NCc1ccc(Cl)c(Cl)c1)N1CCC(C=[S+](C)([O-])c2ccccc2)N2C[C@H](N)C[C@H]2C1=O (some centres not stated) | < 1 µM
2 | CC(C)C[C@H](NC(=O)Cc1ccc(Cl)c(Cl)c1)N1CCC(CCc2ccccc2)N2C[C@H](N)C[C@H]2C1=O (some centres not stated) | in the range around 5.5 µM
